Experiments:
Type in all cases: in vivo
[1] = test system: ragweed (common ragweed, Ambrosia elatior); experiment: Test A preemergence, visual plant response rating; conditions: for Ragweed plant response rating (0 to 100 scale): approx. 10 days; for Ragweed plant response rating: 125 g ai/ha, preemergence, 0 to 100 scale, 0 no effect, 100 complete control
In short: (§1)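 Greenhouse evaluation, approx. 10 days post-spray. Soil: loam + sand. Postemergence stage: 1–2 leaves, height 2–10 cm. Vehicle: non-phytotoxic solvent blend with surfactant. Score: visual injury on a 0 (no effect) to 100 (complete control) scale.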

[2] = test system: Italian ryegrass (Lolium multiflorum); experiment: Test A preemergence, visual plant response rating; conditions: for Ryegrass, Italian plant response rating (0 to 100 scale): approx. 10 days; for Ryegrass, Italian plant response rating: 125 g ai/ha, preemergence, 0 to 100 scale, 0 no effect, 100 complete control
In short: as §1

[3] = test system: pigweed (Amaranthus retroflexus); experiment: Test A preemergence, visual plant response rating; conditions: for Pigweed plant response rating (0 to 100 scale): approx. 10 days; for Pigweed plant response rating: 125 g ai/ha, preemergence, 0 to 100 scale, 0 no effect, 100 complete control
In short: as §1

[4] = test system: foxtail, giant (giant foxtail, Setaria faberii); experiment: Test A preemergence, visual plant response rating; conditions: for Foxtail, Giant plant response rating (0 to 100 scale): approx. 10 days; for Foxtail, Giant plant response rating: 125 g ai/ha, preemergence, 0 to 100 scale, 0 no effect, 100 complete control
In short: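 Ratings 0–100 (100 = complete control), visual, vs untreated controls at ~10 days. Application pre- or postemergence; solvent mixture with surfactant; loam/sand medium.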

[5] = test system: kochia (Kochia scoparia); experiment: Test A preemergence, visual plant response rating; conditions: for Kochia plant response rating (0 to 100 scale): approx. 10 days; for Kochia plant response rating: 125 g ai/ha, preemergence, 0 to 100 scale, 0 no effect, 100 complete control
In short: as §1

[6] = test system: barnyardgrass (Echinochloa crus-galli); experiment: Test A preemergence, visual plant response rating; conditions: for Barnyardgrass plant response rating (0 to 100 scale): approx. 10 days; for Barnyardgrass plant response rating: 125 g ai/ha, preemergence, 0 to 100 scale, 0 no effect, 100 complete control
In short: as §1

[7] = test system: sedge, umbrella (small-flower umbrella sedge, Cyperus difformis); experiment: Test B flooded paddy test, visual plant response rating; conditions: 250 g ai/ha, Flood, applied to paddy water, 2-leaf stage, evaluated after 13 to 15 days
In short: (§2)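 Rice, umbrella sedge, ducksalad and barnyardgrass grown to 2-leaf stage; pots flooded 3 cm above soil and compound applied directly to paddy water, depth maintained.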

[8] = test system: ducksalad (Heteranhera limosa); experiment: as above; conditions: 250 g ai/ha, Flood, applied to paddy water, 2-leaf stage, evaluated after 13 to 15 days
In short: as §2

[9] = test system: barnyardgrass (Echinochloa crus-galli); experiment: as above; conditions: 250 g ai/ha, Flood, applied to paddy water, 2-leaf stage, evaluated after 13 to 15 days
In short: as §2

[10] = test system: rice (Oryza sativa); experiment: as above; conditions: 250 g ai/ha, Flood, applied to paddy water, 2-leaf stage, evaluated after 13 to 15 days
In short: as §2

[11] = test system: ragweed (common ragweed, Ambrosia elatior); experiment: Test A postemergence, visual plant response rating; conditions: for Ragweed plant response rating (0 to 100 scale): 500 g ai/ha, postemergence, 0 is no effect, 100 is complete control; for Ragweed plant response rating: Postemergence, 125 g ai/ha, 0 to 100 scale (0 no effect, 100 complete control)
In short: as §1

[12] = test system: Italian ryegrass (Lolium multiflorum); experiment: Test A postemergence, visual plant response rating; conditions: for Ryegrass, Italian plant response rating (0 to 100 scale): 500 g ai/ha, postemergence, 0 is no effect, 100 is complete control; for Ryegrass, Italian plant response rating: Postemergence, 125 g ai/ha, 0 to 100 scale (0 no effect, 100 complete control)
In short: as §1

[13] = test system: pigweed (Amaranthus retroflexus); experiment: Test A postemergence, visual plant response rating; conditions: for Pigweed plant response rating (0 to 100 scale): 500 g ai/ha, postemergence, 0 is no effect, 100 is complete control; for Pigweed plant response rating: Postemergence, 125 g ai/ha, 0 to 100 scale (0 no effect, 100 complete control)
In short: as §1

[14] = test system: foxtail, giant (giant foxtail, Setaria faberii); experiment: Test A postemergence, visual plant response rating; conditions: for Foxtail, Giant plant response rating (0 to 100 scale): 500 g ai/ha, postemergence, 0 is no effect, 100 is complete control; for Foxtail, Giant plant response rating: Postemergence, 125 g ai/ha, 0 to 100 scale (0 no effect, 100 complete control)
In short: as §1

[15] = test system: corn (Zea mays); experiment: Test A postemergence, visual plant response rating; conditions: for Corn plant response rating (0 to 100 scale): 500 g ai/ha, postemergence, 0 is no effect, 100 is complete control; for Corn plant response rating: Postemergence, 125 g ai/ha, 0 to 100 scale (0 no effect, 100 complete control)
In short: as §1

[16] = test system: kochia (Kochia scoparia); experiment: Test A postemergence, visual plant response rating; conditions: for Kochia plant response rating (0 to 100 scale): 500 g ai/ha, postemergence, 0 is no effect, 100 is complete control; for Kochia plant response rating: Postemergence, 125 g ai/ha, 0 to 100 scale (0 no effect, 100 complete control)
In short: as §1

[17] = test system: galium (catchweed bedstraw, Galium aparine); experiment: Test A postemergence, visual plant response rating; conditions: for Galium plant response rating (0 to 100 scale): 500 g ai/ha, postemergence, 0 is no effect, 100 is complete control; for Galium plant response rating: Postemergence, 125 g ai/ha, 0 to 100 scale (0 no effect, 100 complete control)
In short: as §1

[18] = test system: wheat (Triticum aestivum); experiment: Test A postemergence, visual plant response rating; conditions: for Wheat plant response rating (0 to 100 scale): 500 g ai/ha, postemergence, 0 is no effect, 100 is complete control; for Wheat plant response rating: Postemergence, 125 g ai/ha, 0 to 100 scale (0 no effect, 100 complete control)
In short: as §1

[19] = test system: barnyardgrass (Echinochloa crus-galli); experiment: Test A postemergence, visual plant response rating; conditions: for Barnyardgrass plant response rating (0 to 100 scale): 500 g ai/ha, postemergence, 0 is no effect, 100 is complete control; for Barnyardgrass plant response rating: Postemergence, 125 g ai/ha, 0 to 100 scale (0 no effect, 100 complete control)
In short: as §1

[20] = test system: blackgrass (Alopecurus myosuroides); experiment: Test A postemergence, visual plant response rating; conditions: for Blackgrass plant response rating (0 to 100 scale): 500 g ai/ha, postemergence, 0 is no effect, 100 is complete control; for Blackgrass plant response rating: Postemergence, 125 g ai/ha, 0 to 100 scale (0 no effect, 100 complete control)
In short: as §1

Row | SMILES | Ragweed plant response rating (0 to 100 scale) ([1]; 500 g ai/ha Preemergence) | Ryegrass, Italian plant response rating (0 to 100 scale) ([2]; 500 g ai/ha Preemergence) | Pigweed plant response rating (0 to 100 scale) ([3]; 500 g ai/ha Preemergence) | Foxtail, Giant plant response rating (0 to 100 scale) ([4]; 500 g ai/ha Preemergence) | Kochia plant response rating (0 to 100 scale) ([5]; 500 g ai/ha Preemergence) | Barnyardgrass plant response rating (0 to 100 scale) ([6]; 500 g ai/ha Preemergence) | Plant response rating, Sedge, Umbrella (0 to 100 scale, 0 is no effect, 100 is complete control) [7] | Plant response rating, Ducksalad (0 to 100 scale, 0 is no effect, 100 is complete control) [8] | Plant response rating, Barnyardgrass (0 to 100 scale, 0 is no effect, 100 is complete control) [9] | Plant response rating, Rice (0 to 100 scale, 0 is no effect, 100 is complete control) [10] | Ragweed plant response rating (0 to 100 scale) [11] | Ragweed plant response rating [11] | Ryegrass, Italian plant response rating (0 to 100 scale) [12] | Ryegrass, Italian plant response rating [12] | Pigweed plant response rating (0 to 100 scale) [13] | Pigweed plant response rating [13] | Foxtail, Giant plant response rating (0 to 100 scale) [14] | Foxtail, Giant plant response rating [14] | Corn plant response rating (0 to 100 scale) [15] | Corn plant response rating [15] | other results
1 | CON=C(c1cccc(Cl)c1)c1c(O)c(C)nn(C2CC2)c1=O (mixture of isomers) [Compound 33] | 20 | 60 | 70 | 0 | 10 | 0 | 0 | 0 | 0 | 0 | 60 | 10 | 60 | 10 | 30 | 10 | 10 | 0 | 0 | 0 | Ragweed plant response rating (0 to 100 scale) ([1]; 125 g ai/ha Preemergence): 0; Ryegrass, Italian plant response rating (0 to 100 scale) ([2]; 125 g ai/ha Preemergence): 20; Pigweed plant response rating (0 to 100 scale) ([3]; 125 g ai/ha Preemergence): 0; Foxtail, Giant plant response rating (0 to 100 scale) ([4]; 125 g ai/ha Preemergence): 0; Kochia plant response rating (0 to 100 scale) ([5]; 125 g ai/ha Preemergence): 0; Barnyardgrass plant response rating (0 to 100 scale) ([6]; 125 g ai/ha Preemergence): 0; Kochia plant response rating (0 to 100 scale) [16]: 40; Kochia plant response rating [16]: 20; Galium plant response rating (0 to 100 scale) [17]: 70; Galium plant response rating [17]: 40; Wheat plant response rating (0 to 100 scale) [18]: 20; Wheat plant response rating [18]: 0; Barnyardgrass plant response rating (0 to 100 scale) [19]: 0; Barnyardgrass plant response rating [19]: 0; Blackgrass plant response rating (0 to 100 scale) [20]: 0; Blackgrass plant response rating [20]: 0
2 | Cc1nn(C)c(=O)c(C(=NOCC=CCl)c2ccc(F)c3ccccc23)c1O [Compound 107] | 80 | 90 | 80 | 100 | 30 | 90 | 0 | 0 | 0 | 0 | 90 | 80 | 90 | 70 | 100 | 80 | 80 | 70 | 20 | 0 | Ragweed plant response rating [1]: 20; Ryegrass, Italian plant response rating [2]: 70; Pigweed plant response rating [3]: 60; Foxtail, Giant plant response rating [4]: 80; Kochia plant response rating [5]: 0; Barnyardgrass plant response rating [6]: 70; Kochia plant response rating (0 to 100 scale) [16]: 60; Kochia plant response rating [16]: 30; Galium plant response rating (0 to 100 scale) [17]: 90; Galium plant response rating [17]: 70; Wheat plant response rating (0 to 100 scale) [18]: 40; Wheat plant response rating [18]: 0; Barnyardgrass plant response rating (0 to 100 scale) [19]: 90; Barnyardgrass plant response rating [19]: 80; Blackgrass plant response rating (0 to 100 scale) [20]: 80; Blackgrass plant response rating [20]: 80
3 | CCc1cccc(/C(=N\OC)c2c(O)c(C)nn(C)c2=O)c1 [Compound 68] | 50 | 60 | 80 | 20 | 40 | 0 | 0 | 0 | 0 | 0 | 90 | 70 | 30 | 20 | 80 | 30 | 10 | 0 | 0 | 0 | Ragweed plant response rating [1]: 20; Ryegrass, Italian plant response rating [2]: 30; Pigweed plant response rating [3]: 50; Foxtail, Giant plant response rating [4]: 0; Kochia plant response rating [5]: 10; Barnyardgrass plant response rating [6]: 0; Kochia plant response rating (0 to 100 scale) [16]: 80; Kochia plant response rating [16]: 70; Galium plant response rating (0 to 100 scale) [17]: 70; Galium plant response rating [17]: 60; Wheat plant response rating (0 to 100 scale) [18]: 0; Wheat plant response rating [18]: 0; Barnyardgrass plant response rating (0 to 100 scale) [19]: 0; Barnyardgrass plant response rating [19]: 0; Blackgrass plant response rating (0 to 100 scale) [20]: 30; Blackgrass plant response rating [20]: 30

Source: patent US20210045385A1, “PYRIDAZINONE-SUBSTITUTED KETOXIMES AS HERBICIDES” (FMC Corporation, priority 2018, published 2021)
